Measured values from ChEMBL document CHEMBL4396898, “Design and synthesis of 3-aminophthalazine derivatives and structural analogues as PDE5 inhibitors: anti-allodynic effect against neuropathic pain in a mouse model” (Eur J Med Chem, 2019).
≈ marks a conversion by molar mass, not a printed value.

How the values were obtained:
[1] = physchem; conditions: saline
[2] = physchem; conditions: methanol:water:HCl, pH 1

## Clc1cccc(Nc2nnc(-c3ccccc3)c3ccccc23)c1
[1]
  solubility at 24 h: 63 µg/mL (≈ 190 µM)

## COc1ccc(CNc2nn(C)c3ccc(C(F)(F)F)cc23)cc1
[2]
  remaining at 96 h: 100%

## COc1ccc(CNc2nn(-c3cccnc3)c3ccc(C(F)(F)F)cc23)cc1
[2]
  remaining at 96 h: 100%
[1]
  solubility at 24 h: 15 µg/mL (≈ 37.7 µM)
